# Laboratory results from patent publication US20240407364A1, “METHODS OF WEED CONTROL” (Weedout Ltd., priority 2021, published 2024).
# Entries after “also recorded” stand apart in the source; their conditions may differ.
# Legend:
# [1] = test system: A. palmeri female plants; assay: Exp 289: seed set of female plants pollinated 1.5 hours to 10 days after Clethodim; assay type: in vivo, Amaranthus palmeri; conditions: Select Super 3.5 ml/l
# Procedure: The goal of this experiment was to examine the effects of Clethodim (Select Super™) on seed set in A. palmeri female plants. The results of Example 1 provided an initial indication on a reduction in seed set one week after an application of Clethodim. The following experiment tested the effect of Clethodim on seed set when pollination occurs from 1.5 hours to 10 days after treatment with Clethodim.
# The experiment was conducted during June-July 2021 at the tests farm of the Tests farm of the Faculty of Agriculture, Rehovot, Israel, Israel. A. palmeri plants were sown in germinating trays. Three weeks after the seedlings had emerged, they were transplanted to 4 L pots with a potting soil mixture. The female plants were separated from the male plants and were grown outside in a location isolated from air-borne pollen. Upon maturation, 6 female plants were selected and divided into 2 groups of 3 plants.
# Spraying of the entire plants with either tap water or Select Super™ (3.5 ml/1) using a hand-held 1.5 L sprayer, with enough distance between the groups to prevent contamination.
# To test the effect of Clethodim on seed set, the inflorescence of the plants were artificially pollinated. On each time interval, a paper tube with 10 mg of fresh non-irradiated pollen was carefully placed on an inflorescence, leaving it for 20 minutes before removing. […]
# [2] = test system: A. palmeri male plants; assay: Exp 254: pollen production of male plants after spraying male sterilant agents; assay type: in vivo, Amaranthus palmeri
# Procedure: (§1) The experiment was conducted during April-May 2021 in a net house in Rehovot, Israel. A. palmeri plants were sown in germinating trays. Three weeks after the seedlings had emerged, the male plants were transplanted in the net house. A. palmeri plants were divided into 10 groups of 10 plants, 100 male plants in total. In addition, 30 females, 3 females per treatment, were transplanted in 4 L pots with a potting soil mixture and were grown in a different net house, isolated from male pollen.
# Once the male plants had all started to flower, the pollen had been collected daily with a vacuum cleaner. The vacuum cleaner had been mounted with a replaceable filter located ahead of the dust container, thus catching the pollen before it enters the container and improving its collection. A new filter was used for each group, and the filters were kept in a 50 ml tube before the pollen was extracted and weighed in the lab.
# (§2) The experiment tested 8 male sterilant agents (Table 2): (1) Triton X-100 (Adama), at label rate, ˜8 times the rate used in experiment I; (2) Tribenuron-Methyl (TBM) (Gadot), 1/100 the rate used in experiment I; (3) 10% Paraffin oil (Life—Superpharm) diluted in Silicon oil 2 cST; (4) E.O.S. (Adama), an insecticide with a physical mode of action, based on petroleum oil; (5) Maleic Hydrazide (Sigma), an Auxin (plant hormone) disruptor known to affect pollen production; (6) Pyrithiobac (IHARA chemical industry co. ltd), an herbicide of the AHAS inhibitors group, regularly used in cotton cultivation to control broadleaf weeds; (7) Diuron (Adama), a herbicide of the Photosystem II inhibitors, regularly used in cotton cultivation; (8) Clethodim (Select Super™ a selective herbicide used to control Gramineae. Another group of plants were treated with water only as control, and another was not treated at all (Blank).
# (§3) The treatments were applied using a hand-held sprayer, the females were sprayed first and then the males. ˜650 ml solution was used per treatment for both males and females, except the Paraffin:Silicon oil treatment in which 500 ml was used. The solutions were sprayed on top of the plants except the Diuron that was sprayed directly to the soil and stem, except for one female that was sprayed on top. To activate the Diuron, each plant was watered with 1 L of water.
# [3] = test system: A. palmeri females; assay: Exp 254: seed set of females pollinated one week after treatment; assay type: in vivo, Amaranthus palmeri
# Procedure: as §1, §3
# The experiment aimed to test not just the male sterility properties of the agents but also to examine the effect on the seed set. To do so, one week after treatment, the main inflorescence of each female (except the blank) was pollinated with fresh pollen mixed with talc in 2:1 ratio using a puffer. 70 mg of pollen was applied on each female. Two weeks after pollination the inflorescences were harvested, dried, thrashed and the seeds were counted.
# [4] = test system: A. palmeri male plants; assay: Exp 275: pollen weight of male plants after male sterilant agents; assay type: in vivo, Amaranthus palmeri
# Procedure: The experiment was conducted during May-June 2021 in a net house in Rehovot, Israel. A. palmeri plants were sown in the net house soil and were grown for over a month before the experiment started. A. palmeri plants were divided into 6 groups of 10 plants, 60 male plants in total.
# The plants were mature and produced pollen when the experiment started. The pollen had been collected daily with a vacuum cleaner. The vacuum cleaner had been mounted with a replaceable filter located ahead of the dust container, thus catching the pollen before it enters the container and improving its collection. Pollen was collected for 5 days before the treatment and was continued for 2 weeks afterwards.
# The experiment tested 5 male sterilant agents: (I) Silicon oil 2 cST; (II) 2% Paraffin oil (Life—Superpharm) in Silicon oil 2 c/st; (III) 10% Paraffin oil (Life—Superpharm) in Silicon oil 2 cST; (IV) Clethodim (Select Super™), same as in Example 1; (V) Pyrithiobac, at 1/10 the concentration used in experiment II. Another group of plants was not treated at all (Blank).
# The treatments were applied using a hand-held sprayer. The solutions were sprayed on top of the plants.
# [5] = test system: A. palmeri female plants; assay: Exp 313: dose response of Clethodim (Select Super) on seed set; assay type: in vivo, Amaranthus palmeri; conditions: for reduction in number of seeds produced in comparison to the control, on average: all time points averaged
# Procedure: The goal of this experiment was to examine dose response of Clethodim (Select Super™) treatment and validate the results of Example 3.
# The experiment was conducted during September 2021 at the tests farm of the Faculty of Agriculture in Rehovot, Israel. A. palmeri plants were sown in germinating trays. 3 weeks after the seedlings had emerged, they were transplanted to 4 L pots with a potting soil mixture. The female plants were separated from the male plants and were grown outside in a location isolated from air-borne pollen. Upon maturation, 9 female plants were selected and divided into 3 groups of 3 plants.
# The experiment tested 2 rates of Select Super™ (Clethodim 120 gr/L-Arysta): (I) Low rate (3.5 ml/1), (II) High rate (7 ml/1). Another group of plants was treated with tap water (Control), [3.5 ml/L treatment=0.42 gr/L in active ingredient, 7 ml/L treatment=0.84 gr/L].
# Treatment procedure was conducted as follows: spraying of the entire plants with the different treatments using a hand-held 1.5 L sprayer, with enough distance between the groups to prevent contamination.
# To test the effect of Clethodim on seed set, artificial pollinations were conducted in several time intervals following clethodim treatment. On each time interval, 2 inflorescences on each plant were artificially pollinated by placing a paper tube with 10 mg of fresh non-irradiated pollen on the inflorescence and leaving it for 20 minutes before removing. On each time interval a total of 6 inflorescences from 3 female plants were pollinated. The intervals were as follows: 1.5-hour, 1 day, 2 days, 4 days, 7 days, 10 days and 22 days after treatment.
# [6] = test system: A. palmeri male plants; assay: Exp 321: male sterility agents screening #2, pollen production; assay type: in vivo, Amaranthus palmeri; conditions: 7 ml/L (high rate); collection up to 12 DAA
# Procedure: The goal of this experiments was to repeat results with Select Super™ (Arysta Lifescience) and test an additional formulation of clethodim to act as a sterilant on A. palmeri male plants.
# The experiment was conducted during September-October 2022 in a net house in Rehovot, Israel. A. palmeri plants were sown in germinating trays, 3 weeks after the seedlings had emerged, the male plants were transplanted in the net house. A. palmeri plants were divided into 4 groups of 10 plants each, 40 male plants in total.
# Once the male plants had all started to flower, the pollen had been collected daily with a vacuum cleaner in the same manner as described in Example 1. Pollen was collected in specific days following the applications up to 12 DAA.
# The experiment tested 2 male sterilant agents: (1) Clethodim (Select Super™, Arysta Lifescience) low rate: 3.5 ml/L and high rate: 7 ml/L, (2) Clethodim (Arrow Super™, Adama) 7 ml/L. Another group of plants were not treated at all and served as a control.
# Treatment procedure was conducted as follows: spraying of the entire plants using a hand-held 1.5 L sprayer for a full cover of all plant parts. Each group of plants was sprayed with the tested treatment while keeping enough distance between the groups to prevent contamination.
# [7] = test system: Amaranthus tuberculatus female plants; assay: Exp 401: clethodim on broadleaf panel, Amaranthus tuberculatus seed set; assay type: in vivo; conditions: Select Super 7 ml/L
# Procedure: (§4) The goal of this experiment was to examine if ACCase inhibitors can function as a sterilant on other broadleaf families.
# (§5) The experiment was conducted during April-June 2022 at the test farm of the Faculty of Agriculture in Rehovot, Israel. The different broad leaf species (Table 5) were sown in germination trays. 3-4 weeks after the seedling had emerged, they were transplanted in 4 L pots with potting soil mixture. Amaranthus tuberculatus female plants were separated from male plants and grown outside in a location isolated from air borne pollen. Upon maturation, 10 plants from each species, except for A. tuberculatus females, were selected and divided into 2 groups (control and treatment). In A. tuberculatus, 8 female plants were used for the testing.
# (§6) All the treated plants were sprayed with clethodim (Select Super™, Arysta Lifescience) in 7 ml/L rate while the control group was treated with tap water.
# (§7) Treatment procedure was conducted as follows: spraying of the entire plants with the different treatments using electric back sprayer for a full cover, with enough distance between the groups to prevent contamination.
# To test the effect of treatment on the seed set, artificial pollinations were conducted 7 days following the clethodim treatment. One spike from each plant was artificially pollinated by placing a paper tube with 10 mg of fresh non-irradiated pollen on the spike and leaving it for 20 minutes before removing. A total of 4 spikes from 4 female plants were pollinated.
# (§8) Four, 7 14 and 21 days after treatment, the plants were visually examined carefully to identify possible sterilant effects such as reduction in pollen production, growth delay, damaged flowers, loss of flowers, loss of pods and phytotoxicity. These effects were measured or evaluated and recorded. The average values of each parameter were calculated both for the treated and for the control groups and a statistical analysis was conducted.
# [8] = test system: Amaranthus tuberculatus male plants; assay: Exp 401: Amaranthus tuberculatus pollen production; assay type: in vivo; conditions: Select Super 7 ml/L
# Procedure: as §4, §5
# (§9) All the treated plants were sprayed with clethodim (Select Super™, Arysta Lifescience) in 7 ml/L rate while the control group was treated with tap water. […]
# as §8
# [9] = test system: Abutilon theophrasti; assay: Exp 401: clethodim on Abutilon theophrasti; assay type: in vivo; conditions: Select Super 7 ml/L
# Procedure: as §4, §5, §6, §7, §8
# [10] = test system: Solanum nigrum; assay: Exp 401: clethodim on Solanum nigrum; assay type: in vivo; conditions: Select Super 7 ml/L; 15 DAA; p-value 0.0048
# Procedure: as §4, §5, §9, §8
# [11] = test system: A. palmeri females; assay: Exp 254: phytotoxicity of the agents on females; assay type: in vivo, Amaranthus palmeri; conditions: 3 females per treatment; concentrations of Table 2; Diuron 5 ml/L, Pyrithiobac 5.4 μL/L
# Procedure: as §1
# as §2, with “Another group of plants were treated with water only as control, and another was not treated at all (Blank).” left out
# [12] = Clethodim 3.5 ml/L, 10% Paraffin in 2 cST
# [13] = Clethodim treatment group, FIG. 2
# [14] = average of 3 inflorescences, pollinated one week after treatment
smiles,measurement,setting,value
CCSC(C)CC1CC(=O)C(/C(CC)=N/OC/C=C/Cl)=C(O)C1 (centres unmarked) [Clethodim (Select Super™],abortion rate (aborted seeds/total seeds),[1]; vs tap water,significantly higher compared to the water control
CCSC(C)CC1CC(=O)C(/C(CC)=N/OC/C=C/Cl)=C(O)C1 (centres unmarked) [Clethodim],pollen weight after treatment relative to the lowest amount collected before treatment,[2]; Clethodim 3.5 ml/L,1/10
same,duration of the pollen weight reduction / time to get back to pre-treatment weight,[2]; [12],14 days
same,onset of the reduction in pollen weight,[2]; [12],5 days after treatment
same,onset of pollen production (recovery),[2]; [13],13 DAT
same,period of major reduction in pollen weight,[2]; [13],5-8 DAT
same,visible effect / injury to the treated plants,[2]; male plants after spraying,no apparent injury to the plants; also recorded: no visible effect on the plants
same,Average Aborted Seeds,[3]; [14],80.7 number of seeds
same,Average Abortion Rate (fraction of aborted seeds from the total seed number),[3]; [14],0.17
same,Average Normal Seeds,[3]; [14],349 number of seeds
same,Average Seeds/ mg inflo. (total seed number divided by inflorescence weight),[3]; [14],0.78
same,Average Total Seeds,[3]; [14],429.7 number of seeds
same,Average Inflo. Weight,"[3]; average of 3 inflorescences, pollinated one week after treatment, harvested two weeks later",667.3 mg
same,effect on abortion rate compared to the water,[3]; compared to H2O treatment,no effect
same,number of seeds per inflorescence mg as % of the water treatment value,[3]; compared to H2O treatment,~70%
same,duration of the reduction in pollen weight,"[4]; 10% Paraffin oil in Silicon oil 2 cST, Clethodim (Select Super) as in Example 1",8 days
same,apparent damage to the plants,[4]; in vivo,did not cause any apparent damage to the plants
same,onset of the reduction in pollen weight after application,[4]; in vivo,5 days
same,reduction in pollen weight compared to the blank,"[4]; maximum reduction, FIG. 4",up to 80%
same,duration of decreased total seed number after application,[1],at least 10 days
same,visible effect on the plants,[5]; both rates,no visible effect on the plants
same,"reduction in number of seeds produced in comparison to the control, on average",[5]; high rate 7 ml/l (0.84 gr/L active ingredient),92%
same,"reduction in number of seeds produced in comparison to the control, on average",[5]; low rate 3.5 ml/l (0.42 gr/L active ingredient),67%
same,reduction in pollen production between day 4 and the end of the experiment,[6],78%
same,visible effect on the plants,[7],no visible effect on the plants other than on the flowering organs
same,reduction of average seed weight per spike in comparison to the control spikes,[7]; pollination 7 days after treatment,93%
same,Average total seed weight per spike,"[7]; pollination 7 days after treatment, 4 spikes from 4 plants",13.25 mg
same,duration of the effect on pollen,[8],at least 21 days
same,onset of the effect on pollen,[8],4 days after treatment
same,time from application to start of Blossom-Drop,[9],7 days
same,reduction in average stem length (main stem),"[9]; 15 DAA, p-value *0.0058",19%
same,reduction in average pods number in comparison to the control,"[9]; 15 days after application, p-value *0.0001",75%
same,reduction in average total fruit number,[10],35%
COc1cc(OC)nc(Sc2cccc(Cl)c2C(=O)O)n1 [Pyrithiobac],phytotoxicity on females,[11],chlorosis and growth stunt
CN(C)C(=O)Nc1ccc(Cl)c(Cl)c1 [Diuron],phytotoxicity on females,[11],killed all three females
